Drawing on the supplement of paper PMC10307832, this text covers relative viability for five compounds.

Experiment in all cases: relative viability (nuclei count vs DMSO), 5 days (fraction); higher = more cells survive
One assay has as its system IA-LM. In short, it runs like this:
(§1)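 Relative viability was taken as the ratio of nuclei in treated wells to nuclei in vehicle wells. Lung cancer cell lines in 1536-well plates received compounds by pin tool one day after seeding, either one drug alone or a fixed anchor-drug dose plus five library-drug doses (not always all listed) in √10 steps. Nuclei were counted on 4× images after 5 days of treatment, and values are medians of duplicate plates.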

In another assay the test system is NCI-H1703. In short, it runs like this: as §1
The test system of a further assay is Calu-6. In short, it runs like this:
as §1

The next assay deals with EBC-1. In short, it runs like this: as §1
For the next assay, the system named is NCI-H2126. In short, it runs like this:
as §1

Another assay deals with NCI-H1299. In short, it runs like this:
as §1

The test system of another assay is A549. In short, it runs like this: as §1
Another assay relates to NCI-H1623. In short, it runs like this: as §1
For another assay, the system named is NCI-H1648. In short, it runs like this: as §1

On to `C[C@@H]1CN(CC(=O)Nc2ccc3c(c2)Cc2cccc(-c4cc(=O)cc(N5CCOCC5)o4)c2S3)C[C@H](C)O1` + COc1cc2c(Oc3ccc(NC(=O)C4(C(=O)Nc5ccc(F)cc5)CC4)cc3F)ccnc2cc1OCCCN1CCOCC1 [Foretinib] (partner 0.25 µM), for which the relative viability in the assay with IA-LM (first compound 0.04 µM) came to 1.19; in the assay with IA-LM (first compound 0.1265 µM) it was 1.37; in the assay on IA-LM (first compound 0.4 µM), 1.27; in the assay with IA-LM (first compound 4 µM), 0.56; in the assay with NCI-H1703 (first compound 0.04 µM), 0.367; in the assay on NCI-H1703 (first compound 0.1265 µM) it was 0.299. Besides, the relative viability in the assay on NCI-H1703 (first compound 0.4 µM) was 0.36; in the assay with NCI-H1703 (first compound 4 µM), 0.295; in the assay on Calu-6 (first compound 0.04 µM), 0.859; in the assay on Calu-6 (first compound 0.1265 µM), 0.841; with Calu-6 (first compound 0.4 µM), 0.896; in the assay with Calu-6 (first compound 4 µM) it was 0.639. Besides, the relative viability in the assay on EBC-1 (first compound 0.04 µM) stood at 0.119; in the assay on EBC-1 (first compound 0.1265 µM) it was 0.113; in the assay on EBC-1 (first compound 0.4 µM) it was 0.102; in the assay with EBC-1 (first compound 4 µM), 0.129; in the assay with NCI-H2126 (first compound 0.04 µM), 1.17; with NCI-H2126 (first compound 0.1265 µM), 1.12. Besides, the relative viability was found to be 1.12 in the assay on NCI-H2126 (first compound 0.4 µM); 1.02 in the assay on NCI-H2126 (first compound 4 µM); 1.11 with NCI-H1299 (first compound 0.04 µM); 1.1 in the assay on NCI-H1299 (first compound 0.1265 µM); 1.06 with NCI-H1299 (first compound 0.4 µM); 0.995 with NCI-H1299 (first compound 4 µM). Besides, the relative viability in the assay with A549 (first compound 0.04 µM) amounted to 0.818; in the assay with A549 (first compound 0.1265 µM) it was 1.01; with A549 (first compound 0.4 µM), 0.895; in the assay on A549 (first compound 4 µM) it was 0.823; in the assay with NCI-H1623 (first compound 0.04 µM), 0.771; in the assay with NCI-H1623 (first compound 0.1265 µM), 0.837. In addition, the relative viability in the assay on NCI-H1623 (first compound 0.4 µM) was 0.88; with NCI-H1623 (first compound 4 µM), 0.786.
Regarding `CC(C)Oc1cc(Nc2nc(N[C@@H](C)c3ccc(F)cn3)ncc2Cl)n[nH]1` [AZ23] + COc1cc2c(Oc3ccc(NC(=O)C4(C(=O)Nc5ccc(F)cc5)CC4)cc3F)ccnc2cc1OCCCN1CCOCC1 [Foretinib] (partner 0.25 µM), the relative viability in the assay with IA-LM (first compound 0.01 µM) was 1.35; with IA-LM (first compound 0.03162 µM) it was 1.17; in the assay with IA-LM (first compound 0.3162 µM) it was 1.33; with NCI-H1703 (first compound 0.01 µM), 0.331; in the assay on NCI-H1703 (first compound 0.03162 µM), 0.342; with NCI-H1703 (first compound 0.3162 µM), 0.314. For the same compound, the relative viability in the assay with Calu-6 (first compound 0.03162 µM) came to 0.923; in the assay with Calu-6 (first compound 0.3162 µM) it was 0.867; in the assay with EBC-1 (first compound 0.01 µM), 0.103; in the assay with EBC-1 (first compound 0.03162 µM), 0.105; with EBC-1 (first compound 0.3162 µM), 0.0863; in the assay on NCI-H2126 (first compound 0.01 µM), 1.05. Moreover, the relative viability in the assay with NCI-H2126 (first compound 0.03162 µM) was 1.21; in the assay with NCI-H2126 (first compound 0.3162 µM), 1.19; in the assay with NCI-H1299 (first compound 0.01 µM), 1.19; in the assay on NCI-H1299 (first compound 0.03162 µM) it was 1.16; in the assay on NCI-H1299 (first compound 0.3162 µM), 1.18; in the assay with A549 (first compound 0.01 µM), 1.01. Also, the relative viability is 1.03 with A549 (first compound 0.03162 µM); 1.08 with A549 (first compound 0.3162 µM); 0.712 in the assay with NCI-H1623 (first compound 0.01 µM); 0.924 in the assay with NCI-H1623 (first compound 0.03162 µM); 0.966 in the assay on NCI-H1623 (first compound 0.3162 µM).
Take `CC(C)Oc1cc(Nc2nc(N[C@@H](C)c3ccc(F)cn3)ncc2Cl)n[nH]1` [AZ23] + COc1cccc2cc(-c3nc([C@H]4CC[C@H](C(=O)O)CC4)n4ncnc(N)c34)[nH]c12 [OSI-027] (partner 0.5 µM): the relative viability with NCI-H2126 (first compound 0.01 µM) amounted to 0.692; in the assay on NCI-H2126 (first compound 0.03162 µM), 0.735; in the assay with NCI-H2126 (first compound 0.3162 µM) it was 0.756; with NCI-H1648 (first compound 0.03162 µM) it was 0.258; with NCI-H1648 (first compound 0.3162 µM), 0.256; in the assay with NCI-H1623 (first compound 0.01 µM) it was 0.401. For the same compound, the results for the relative viability in the assay on NCI-H1623 (first compound 0.03162 µM) and with NCI-H1623 (first compound 0.3162 µM) were 0.401 and 0.43, respectively.
Take `CC(C)Oc1cc(Nc2nc(N[C@@H](C)c3ccc(F)cn3)ncc2Cl)n[nH]1` [AZ23] + Cc1cc(Nc2cc(N3CCN(C)CC3)nc(Sc3ccc(NC(=O)C4CC4)cc3)n2)n[nH]1 [Tozasertib] (partner 0.1 µM): the relative viability with NCI-H2126 (first compound 0.01 µM) turned out to be 0.923; in the assay on NCI-H2126 (first compound 0.03162 µM), 0.939; in the assay on NCI-H2126 (first compound 0.3162 µM), 0.892; with NCI-H1648 (first compound 0.03162 µM) it was 0.542; with NCI-H1648 (first compound 0.3162 µM), 0.502; in the assay on NCI-H1623 (first compound 0.01 µM), 0.402. In addition, the relative viability in the assay on NCI-H1623 (first compound 0.03162 µM) amounted to 0.427; in the assay on NCI-H1623 (first compound 0.3162 µM), 0.504.
Regarding `COc1cc(N2CCC(C(N)=O)CC2)ccc1Nc1nc(N)c(Cl)c(Nc2ccccc2S(=O)(=O)C(C)C)n1` [HG-5-88-01] + COc1cc2c(Oc3ccc(NC(=O)C4(C(=O)Nc5ccc(F)cc5)CC4)cc3F)ccnc2cc1OCCCN1CCOCC1 [Foretinib] (partner 0.25 µM), the relative viability in the assay with IA-LM (first compound 0.04 µM) came out at 1.28; in the assay with IA-LM (first compound 0.1265 µM) it was 1.22; with IA-LM (first compound 0.4 µM) it was 1.05; in the assay on IA-LM (first compound 1.265 µM), 0.885; with IA-LM (first compound 4 µM) it was 1.18; in the assay on NCI-H1703 (first compound 0.04 µM), 0.41. Also, the relative viability with NCI-H1703 (first compound 0.1265 µM) was found to be 0.349; in the assay on NCI-H1703 (first compound 1.265 µM), 0.275; in the assay on NCI-H1703 (first compound 4 µM), 0.331; with Calu-6 (first compound 0.04 µM) it was 0.865; in the assay with Calu-6 (first compound 0.1265 µM), 0.879; in the assay on Calu-6 (first compound 0.4 µM), 0.866. Besides, the relative viability amounted to 0.793 in the assay with Calu-6 (first compound 1.265 µM); 0.686 in the assay on Calu-6 (first compound 4 µM); 0.0975 in the assay with EBC-1 (first compound 0.04 µM); 0.12 in the assay on EBC-1 (first compound 0.4 µM); 0.11 in the assay with EBC-1 (first compound 1.265 µM); 0.105 in the assay on EBC-1 (first compound 4 µM). For the same compound, the relative viability with NCI-H2126 (first compound 0.1265 µM) was 1.22; in the assay on NCI-H2126 (first compound 0.4 µM), 1.05; with NCI-H2126 (first compound 1.265 µM), 0.937; in the assay with NCI-H2126 (first compound 4 µM) it was 1.23; in the assay with NCI-H1299 (first compound 0.04 µM), 1.05; with NCI-H1299 (first compound 0.1265 µM), 1.11. The relative viability with NCI-H1299 (first compound 0.4 µM) came out at 1.1; with NCI-H1299 (first compound 1.265 µM) it was 1.07; in the assay with NCI-H1299 (first compound 4 µM) it was 1.1; with A549 (first compound 0.04 µM) it was 0.984; with A549 (first compound 0.1265 µM), 0.861; with A549 (first compound 0.4 µM), 0.993. Besides, the relative viability in the assay on A549 (first compound 1.265 µM) is 0.87; in the assay with A549 (first compound 4 µM), 0.228; in the assay on NCI-H1623 (first compound 0.04 µM) it was 0.925; with NCI-H1623 (first compound 0.1265 µM) it was 0.906; in the assay with NCI-H1623 (first compound 0.4 µM), 0.845; in the assay with NCI-H1623 (first compound 4 µM) it was 0.773.
